What was measured:
selected RNA motifs = test: In solution fluorescence-based binding affinity measurement; settings: read-out: Average Kd of Selected RNA Binders
Procedure: Bound RNA motifs for each compound were harvested from the array surface, amplified, and identified by using high throughput sequencing (RNA-seq). Highly abundant RNAs in the sequencing data were then subjected to binding measurements. Typically, those RNAs that were highly enriched bound to the small molecules with affinities (Kds) that ranged from 1 to 10 μM (FIG. 2 and Table 1) while binding to the starting libraries was not saturable. These affinities are promising for binding RNA, as it has been difficult to acquire low micromolar affinity with compounds of this low molecular weight. In fact, RNAs that have undergone Darwinian evolution to bind small molecules, namely riboswitches, often bind their cognate ligand at […] concentrations;^30-33 bioactive compounds that mimic riboswitch ligands bind with similar affinities.^30,34
(§1) Binding Affinity Measurements: An in solution, fluorescence-based assay was used to determine binding affinities by monitoring the change in fluorescence intensity of 1-FL (or 2-FL/3-FL/4-FL) as a function of RNA concentration as described previously.^18 Briefly, the RNA of interest was folded in 1× Folding Buffer (8 mM Na2HPO4, pH 7.0, 185 mM NaCl and 1 mM EDTA) by heating at 60° C. for 5 min followed by slowly cooling to room temperature on the bench top. Then, the FL-conjugated compound was added into the RNA solution to a final concentration of 100 nM. Serial dilutions were then completed using 1× Folding Buffer supplemented with 100 nM FL-conjugated compound. The solutions were incubated at room temperature for 30 min and then transferred to a well of a black 384-well plate. Fluorescence intensity was measured using a Bio-Tek FL×800 plate reader with an excitation wavelength of 485/20 nm and an emission wavelength of 528/20 nm. The change in fluorescence intensity as a function of the concentration of RNA was fit to equation 3:^9 I=I0+0.5 Δε{([FL]0+[RNA]0 +Kd)−(([FL]0+[RNA]0+Kd)^2−4[FL]0[RNA]0)^1/2} (3) where I is the observed fluorescence intensity; I0 is the fluorescence intensity in the absence of RNA; Δε is the difference between the fluorescence intensity in the absence of RNA and in the presence of infinite RNA concentration; [FL]0 is the concentration of compound; [RNA]0 is the concentration of the selected RNA; and Kd is the dissociation constant.

AT-rich DNA hairpin = test: as above
Excerpt: It has been difficult to identify compounds that are heterocyclic in nature that selectively recognize RNA over DNA.^5 Thus, to further gain insight into the selectivity of our RNA motif-small molecule interactions, we compared the measured affinities for selected RNA motifs to the affinities of the ligands for an AT-rich DNA hairpin, a common target of small molecules similar to those shown in FIG. 1. […] This alteration reduces DNA affinity because key stacking and hydrogen bonding interactions are not possible. […] Thus, the interactions selected via 2DCS are RNA-selective.
as §1

Structure (SMILES)	Kd (selected RNA motifs)	Kd (AT-rich DNA hairpin)
CN1CCN(c2ccc(-c3ccc4nc(-c5ccc(OCCCC(=O)NCCCN=[N+]=[N-])cc5)[nH]c4c3)cc2)CC1 [Compound 1]	16 ± 9 µM	> 100 µM
Cc1cc(-c2nc3ccc(-c4ccc(N5CCN(C)CC5)cc4)cc3[nH]2)cc(C)c1OCCCC(=O)NCCCN=[N+]=[N-] [Compound 2]	7 ± 5 µM	> 100 µM
CC(C)c1cc(-c2nc3ccc(-c4ccc(N5CCN(C)CC5)cc4)cc3[nH]2)cc(C(C)C)c1OCCCC(=O)NCCCN=[N+]=[N-] [Compound 3]	8 ± 4 µM	> 100 µM

Reference: US12527788B2, “Defining RNA-small molecule affinity landscapes enables design of a small molecule inhibitor of an oncogenic non-coding RNA” (University of Florida Research Foundation, Incorporated, priority 2017, dated 2026)
